Patent publication US8455398B2, “Amide compounds, preparation methods and uses thereof” (Sinochem Corporation, priority 2008, dated 2013)

Legend:
[1] = tested on: cucumber anthracnose; experiment: Fungicidal activity in vivo, cucumber anthracnose; settings: plants sprayed, inoculated after 24 hours
Protocol: (§1) Determine the fungicidal activities of the compounds of the present invention against plant diseases, carried by following procedure:
(§2) Determination of Fungicidal Activity In Vivo:
(§3) Compounds were dissolved in acetone, and diluted to required concentration with water containing 0.1% of tween 80. Plants were sprayed by a sprayer. After 24 hours, plants were innoculated and then transferred into a dew chamber for infection. After the infection period normally one week), the plants were scored for disease control.

[2] = tested on: diamond backmoth (Plutella xylostella); experiment: Insecticidal activity, spray test, diamond backmoth; type: in vivo; settings: 600 ppm, mortality after two to three days
Protocol: (§4) Determination of insecticidal and acaricidal activity of selected compounds were carried out by following procedure:
(§5) Compounds were dissolved in mixed solvent (acetone:methanol=1:1), and diluted to required concentration with water containing 0.1% of tween 80.
(§6) The armyworm (Leucania separata), the second stage Juvenile of diamond backmoth (Plutella xylostella), lesser army worm (Spodoptera exiqua), green peach aphids (Myzus persicae) and mite (Tetranychus cinnabarinus) were used in biological test. The test was employed either spraying by airbrush. A test solution (0.5 ml) was sprayed at the pressure of 10 psi (0.7 kg/cm^2). Percent mortality was determined after two to three days.

[3] = tested on: lesser army worm (Spodoptera exiqua); experiment: Insecticidal activity, spray test, lesser armyworm; type: in vivo; settings: mortality after two to three days
Protocol: as §4, §5, §6

[4] = tested on: plant diseases; experiment: Fungicidal activity in vivo against plant diseases (overall); settings: 400 ppm
Protocol: as §1, §2, §3

| Compound | control of diamond backmoth [2] [%] | control of lesser armyworm ([3]; 600 ppm) [%] | further results |
| --- | --- | --- | --- |
| Cc1cc(C(=O)NCCNc2ncc(C#N)cc2Cl)ccc1NC(=O)c1cc(Br)nn1-c1ncccc1Cl [83 in Table 96] |  |  | control of cucumber anthracnose ([1]; 400 ppm): 100% |
| Cc1cc(Cl)cc(C(=O)NCCNc2ccc(C(F)(F)F)cc2Cl)c1NC(=O)c1cc(Br)nn1-c1ncccc1Cl [Table 173-83] | 100 | 100 |  |
| Cc1cc(Cl)cc(C(=O)NCCNc2ncccc2Cl)c1NC(=O)c1cc(Br)nn1-c1ncccc1Cl [Table 179-83] | 100 | 100 |  |
| Cc1cc(Cl)cc(C(=O)NCCCNc2ncccc2Cl)c1NC(=O)c1cc(Br)nn1-c1ncccc1Cl [Table 179-199] | 100 | 100 |  |
| Cc1cc(Cl)cc(C(=O)N2CCN(c3ncccc3Cl)CC2)c1NC(=O)c1cc(Br)nn1-c1ncccc1Cl [Table 179-303] | 100 | 100 |  |
| Cc1cc(Cl)cc(C(=O)NC(C)CNc2ncccc2Cl)c1NC(=O)c1cc(Br)nn1-c1ncccc1Cl (centres unmarked) [Table 179-304] | 100 | 100 | control of cucumber anthracnose ([1]; 50 ppm): 100%; control of cucumber anthracnose ([1]; 400 ppm): 100%; control of lesser armyworm ([3]; 1 ppm): 100%; control of lesser armyworm ([3]; 10 ppm): 100% |
| Cc1cc(Cl)cc(C(=O)NCCNc2ncc(C(F)(F)F)cc2Cl)c1NC(=O)c1cc(Br)nn1-c1ncccc1Cl [Table 181-83] | 100 | 100 | control of cucumber anthracnose ([1]; 50 ppm): 100%; control of cucumber anthracnose ([1]; 400 ppm): 100%; control of lesser armyworm ([3]; 0.1 ppm): more than 60%; control of lesser armyworm ([3]; 1 ppm): 100%; control of lesser armyworm ([3]; 10 ppm): 100% |
| Cc1cc(Cl)cc(C(=O)NCCCNc2ncc(C(F)(F)F)cc2Cl)c1NC(=O)c1cc(Br)nn1-c1ncccc1Cl [Table 181-199] | 100 | 100 | control of lesser armyworm ([3]; 1 ppm): 100%; control of lesser armyworm ([3]; 10 ppm): 100% |
| Cc1cc(Cl)cc(C(=O)N2CCN(c3ncc(C(F)(F)F)cc3Cl)CC2)c1NC(=O)c1cc(Br)nn1-c1ncccc1Cl [Table 181-303] | 100 | 100 |  |
| Cc1cc(Cl)cc(C(=O)NC(C)CNc2ncc(C(F)(F)F)cc2Cl)c1NC(=O)c1cc(Br)nn1-c1ncccc1Cl (centres unmarked) [Table 181-304] | 100 | 100 |  |
| Cc1cc(Cl)cc(C(=O)NCCNc2ncc(C#N)cc2Cl)c1NC(=O)c1cc(Br)nn1-c1ncccc1Cl [Table 182-83] | 100 | 100 |  |
| Cc1cc(Cl)cc(C(=O)NCCCNc2ncc(C#N)cc2Cl)c1NC(=O)c1cc(Br)nn1-c1ncccc1Cl [Table 182-199] | 100 | 100 |  |
| Cc1cc(Cl)cc(C(=O)NCCNc2ncc(Cl)cc2Cl)c1NC(=O)c1cc(Br)nn1-c1ncccc1Cl [Table 211-83] | 100 | 100 | control of cucumber anthracnose ([1]; 400 ppm): 100% |
| Cc1cc(Cl)cc(C(=O)NCCCNc2ncc(Cl)cc2Cl)c1NC(=O)c1cc(Br)nn1-c1ncccc1Cl [Table 211-199] | 100 | 100 | control of lesser armyworm ([3]; 10 ppm): 100% |
| CNC(=O)c1cc(Cl)cc(C)c1NC(=O)c1cc(Br)nn1-c1ncccc1Cl [chlorantraniliprole] |  |  | fungicidal activity [4]: no fungicidal activity |
